Laboratory results from publication PMC9652300, “Neolignans isolated from Saururus cernuus L. (Saururaceae) exhibit efficacy against Schistosoma mansoni” (Scientific Reports, 2022).
Like-named read-outs stand apart in the source and are kept apart here.

Key:
S. mansoni adult worms [1] = settings: cited from earlier work
S. mansoni adult worms [2] = assay: Antischistosomal assay: viability of ex vivo adult worm pairs; type: cell-based
Method: The life cycle of S. mansoni (BH strain) is maintained by routine passage through Biomphalaria glabrata snails and Swiss mice at Guarulhos University (UNG, Guarulhos, SP, Brazil). Rodents, three weeks-old, were purchased from Animais de Laboratório Criação e Comércio (Paulínea, SP, Brazil). Both mice and snails were kept under environmentally controlled conditions (25 °C; humidity of 50%), with free access to food and water. Cercariae of S. mansoni were obtained from infected intermediate host snails in our laboratories as described previously[63],[64].
(§1) The antischistosomal assay was performed as previously described[65],[66]. Briefly, S. mansoni adult parasites were obtained from infected mice at day 42 post-infection (parasite ex vivo). One adult male and one adult female worms (i.e. one worm pairs) were incubated in flat bottom 24-well plates (Corning, New York, NY, USA) in the presence of threo-austrobailignan-6 and verrucosin (started at 50 µM and followed a twofold dilution series) in RPMI 1640 culture medium supplemented with 5% inactivated fetal calf serum and containing antibiotics (100 U/mL penicillin and 100 μg/mL streptomycin). The control schistosomes were assayed in a culture medium and 0.5% DMSO (representing the highest concentration of solvent). Each concentration (50, 25, 12.5, 6.25, 3.12 µM) was tested in five replicates, and the experiments were repeated three times. Parasites were kept for 72 h (37 °C, 5% CO2), and their viability was monitored microscopically at 2, 24, 48, and 72 h using both a Motic AE2000 inverted microscope (Vancouver, Canada) and a Leica EZ4E stereomicroscope (Wetzlar, Germany). The death of adult schistosomes was defined as no movement observed for at least 1 to 2 min of examination, whereas parasites with any body movement were considered viable. The percentage of viable adult schistosomes was calculated considering worms exposed to compounds vs control worms. For assessment of the reproductive fitness of S. mansoni, the number of eggs was counted daily using an inverted microscope (Motic) as previously described.
(§2) Statistical analyses were performed using Graph Pad Prism software 8.0 (San Diego, CA, USA). Data are presented as the mean ± standard deviation (SD) of at least three independent experiments, EC50 and, CC50 values were calculated using sigmoid dose–response curves. For S. mansoni egg production, significant differences were determined by one-way analysis of variance (ANOVA) and applying Tukey's test for multiple comparisons with a level of significance set at P < 0.05.

[3] = tested on: Vero (monkey kidney cells); assay: Cytotoxicity MTT assay, Vero cells; type: cell-based, African green monkey; settings: CC50 Vero / EC50 S. mansoni
Method: (§3) HaCaT (human epithelial cells) and Vero (monkey kidney cells) were obtained from the Banco de Células do Rio de Janeiro (BCRJ, RJ, Brazil) and the American Type Culture Collection (ATCC CCL-81; Manassas, VA, USA), respectively. Cells were cultured in DMEM medium supplemented with 10% heat-inactivated fetal bovine serum and antibiotics (100 U/mL penicillin and 100 μg/mL streptomycin) at 37 °C in a humidified atmosphere containing 5% CO2. They were maintained in 25 cm^2 culture flasks (Corning, Tewksbury, MA, USA) and harvested using 0.25% trypsin in 0.2 g/L EDTA solution.
(§4) The MTT assay was used to evaluate the cytotoxic activity as previously described[71],[72]. Briefly, cells were seeded (2 × 10^3/well in 96-well culture plates) and incubated with threo-austrobailignan-6 and verrucosin (started at 500 µM and followed a threefold dilution series) for 72 h at 37 °C and 5% CO2. MTT solution was added to each well and the absorbance was read on an Epoch Microplate Spectrophotometer (BioTek Instruments, Winooski, VT, USA) at 595 nm. The selectivity indices (SI) were calculated by dividing the 50% cytotoxic concentration (CC50) obtained on cells with 50% effective concentration (EC50) values determined on schistosomes.
as §2

[4] = Cytotoxicity MTT assay, Vero cells; type: cell-based, African green monkey; settings: African green monkey, Vero cells (monkey kidney cells); Vero cells, MTT, 72 h
Method: as §3, §4, §2

[5] = Cytotoxicity MTT assay, HaCaT cells; type: cell-based, human; settings: human, HaCaT cells (human epithelial cells); HaCaT cells, MTT, 72 h
Method: as §3, §4, §2

[6] = tested on: HaCaT (human epithelial cells); assay: Cytotoxicity MTT assay, HaCaT cells; type: cell-based; settings: CC50 HaCaT / EC50 S. mansoni
Method: as §3, §4, §2

[7] = tested on: S. mansoni adult worm pairs; assay: Egg production (reproductive fitness) of paired adult worms; type: cell-based, Schistosoma mansoni; settings: for total number of eggs vs control worms / oviposition: within 72 h
Method: as §1, §2

S. mansoni infections = tested on: S. mansoni infections; set-up: method as in PMID 25412105, PMID 28126024; settings: systematic reviews and meta-analyses; cited from earlier work
[8] = Schistosoma mansoni, 72 h, adult worms, male and female, 72 h, read-out: EC50 (schistosomicidal activity)
[9] = Schistosoma mansoni, 72 h, ex vivo adult female worms, 72 h exposure, brackets = 95% confidence interval, read-out: S. mansoni EC50 Female
[10] = Schistosoma mansoni, 72 h, ex vivo adult male worms, 72 h exposure, brackets = 95% confidence interval, read-out: S. mansoni EC50 Male

## C/C=C/c1cc(OC)c2c(c1)[C@H](C)[C@@H](c1ccc(O)c(OC)c1)O2 [licarin A]
S. mansoni adult worms [1]
  in vitro effective concentration: 30 µM

## COc1cc(O)cc(O)c1C(=O)/C=C/c1ccccc1 [cardamonin]
S. mansoni adult worms [1]
  in vitro effective concentration: 25 µM

## CC(C)CCCC(C)CCO (stereo not drawn) [3,7-dimethylloctanol]
S. mansoni adult worms [1]
  in vitro effective concentration: 52 µM

## CC(=O)Oc1cc(C(C)C)ccc1C [carvacryl acetate]
S. mansoni adult worms [1]
  in vitro effective concentration: 42.16 µM

## COc1cc(C[C@@H](C)[C@H](C)Cc2ccc3c(c2)OCO3)ccc1O [Threo-austrobailignan-6, threo-austrobailignan-6]
S. mansoni adult worms [2]; [8]
  EC50: < 30 µM
S. mansoni adult worms [2]; [9]
  EC50: 28.1 µM
S. mansoni adult worms [2]; [10]
  EC50: 22.9 µM
S. mansoni adult worms [2]; Schistosoma mansoni, 72 h, read-out: mortality of male worms
  mortality at 25 µM: 100%
[3]
  Monkey cells SI (Selectivity Index): > 17.8
[4]
  CC50 at 72 h: > 500 µM
[5]
  CC50 at 72 h: > 500 µM
[6]
  Human cells SI (Selectivity Index): > 17.8
[7]; 25 μM
  pairing of male and female parasites: remained coupled
  total number of eggs vs control worms: significantly reduced
[7]; 50 μM
  pairing of male and female parasites: separated
  oviposition: complete lack of oviposition

## C=C1C[C@@]23CC[C@H]4[C@@](C)(CCC[C@@]4(C)C(=O)O)[C@@H]2CC[C@@H]1C3 [ent-kaur-16-en-19-oic acid]
S. mansoni adult worms [1]
  in vitro effective concentration: 26.1 µM

## Cc1ccc(C(C)C)cc1O [carvacrol]
S. mansoni adult worms [1]
  in vitro effective concentration: 56.8 µM

## C=CC(C)(O)CCC=C(C)CCC=C(C)C (mixture of isomers) [nerolidol]
S. mansoni adult worms [1]
  in vitro effective concentration: 85 µM

## 2-oxopopulifolic acid methyl ester
S. mansoni adult worms [1]
  in vitro effective concentration: 50 µM

## C=CC(C)(C)c1cc(/C=C/C(=O)c2ccc(O)cc2)c(OC)cc1O [licochalcone A]
S. mansoni adult worms [1]
  in vitro effective concentration: 50 µM

## O=C(C1CCCCC1)N1CC(=O)N2CCc3ccccc3C2C1 (stereo not drawn) [Praziquantel, praziquantel, reference compound]
S. mansoni adult worms [2]; [8]
  EC50: < 0.93 µM
S. mansoni adult worms [2]; [9]
  EC50: 0.8 µM
S. mansoni adult worms [2]; [10]
  EC50: 0.7 µM
S. mansoni adult worms [2]; praziquantel at 2 µM, monitored up to 72 h
  mortality of adult worm pairs: mortality of all worms immediately
[3]
  Monkey cells SI (Selectivity Index): > 714
[4]
  CC50 at 72 h: > 500 µM
[5]
  CC50 at 72 h: > 500 µM
S. mansoni infections
  cure rate: approximately 75%

## COc1cc([C@H]2O[C@@H](c3ccc(O)c(OC)c3)[C@@H](C)[C@@H]2C)ccc1O [Verrucosin, verrucosin]
S. mansoni adult worms [2]; 25 μM
  time to death of all female worms: ≤ 72 h
S. mansoni adult worms [2]; Schistosoma mansoni, 48 h, read-out: mortality of male parasites
  mortality at 25 µM: 100%
S. mansoni adult worms [2]; [9]
  EC50: 18.7 µM
S. mansoni adult worms [2]; [10]
  EC50: 12.6 µM
S. mansoni adult worms [2]; adult worms, male and female, 72 h, read-out: EC50 (schistosomicidal activity)
  EC50: < 30 µM
[3]
  Monkey cells SI (Selectivity Index): > 26.8
[4]
  CC50 at 72 h: > 500 µM
[5]
  CC50 at 72 h: > 500 µM
[6]
  Human cells SI (Selectivity Index): > 26.8
[7]; 12.5 μM, P < 0.01
  oviposition: significant reduction
[7]; 25 μM
  pairing of male and female parasites: remained coupled
  total number of eggs vs control worms: significantly reduced
[7]; 50 μM
  pairing of male and female parasites: separated
  oviposition: complete lack of oviposition

## CC1=CC(=O)CC2[C@]1(C)CC[C@@H](C)[C@]2(C)CCC(C)CC(=O)O (stereo partly drawn) [2-oxopopulifolic acid]
S. mansoni adult worms [1]
  in vitro effective concentration: 50 µM

## C=C1C(=O)O[C@@H]2/C=C(\CO)CC/C=C(\C)C[C@H](OC(=O)C(=C)[C@@H](O)CO)[C@@H]12 [cnicin]
S. mansoni adult worms [1]
  in vitro effective concentration: 50 µM
